Results on 87 molecules are retold here after a melting point compilation (Tetko et al.; mined from patent text by program, amines drawn as free bases though some values may be those of a salt).

On to `CN(C(=O)C(F)(F)F)C1(C)CN(c2c(F)cc3c(=O)c(C(=O)O)cn(C4CC4)c3c2F)C1`, for which the melting point is 291 to 294 °C.

Consider `Cc1cc2c(c(N3CC[C@H](N(C)C)C3)c1-c1ccccc1)OC(C#N)(C(=O)N1CCCCC1)N2` (some centres not stated), for which the melting point lay within 170 to 173 °C.

Take `NS(=O)(=O)c1ccc(-c2cc(C(=O)CCCO)nn2C2CCCCC2)cc1`: the melting point fell in the range of 152 to 154 °C.

`CCNC1=NN(c2ccc(Cl)cc2)CC1C` (configuration not stated) registered a melting point of 63 to 64 °C.

With `C=CC(C)(C)CC(NC(=O)c1ccc(Cl)cc1)NC(=NC#N)Nc1cccnc1` (configuration not stated), the melting point was in the range of 171 to 172 °C.

In turn, `CC(C)COc1c(-c2ccc(S(N)(=O)=O)cc2)cnn(-c2cccc(Cl)c2)c1=O` registered a melting point of 80 to 85 °C.

`Cc1nc2cccc(OCC(C)(C)C(=O)NC3CC3)c2c(N)c1C(=O)O` showed a melting point of 227 to 229 °C.

As for `CCC(CC)Nc1c(C)c(C)nc2c1c(C)nn2-c1c(C)cc(C)cc1C`, the melting point is 201 to 205 °C.

Molecule `CCOC(=O)c1cc2c(OCc3ccccc3)c(Cc3ccccc3)ccc2[nH]1` displayed a melting point of 129 to 131 °C.

As for `O=C(O)c1nc2n(n1)-c1cccnc1N(c1ccccc1Cl)C2`, the melting point lay in the range of 155 to 163 °C.

As for `CCN(CC)C(=O)c1cc(-c2ccccc2)c2ccccc2c1-c1ccccc1`, the melting point lay within 111 to 113 °C.

In turn, `Cc1nc2cnccc2n1-c1ccc(CC(=O)O)cc1` displayed a melting point of 226 to 230 °C.

Molecule `CC(C)=CCOc1ccc2c(C)cc(=O)oc2c1C(=O)C=Cc1ccccc1` displayed a melting point of 114 to 116 °C.

In turn, `N#CC1=C(c2ccccc2)Oc2ccccc2O1` came in with a melting point of 85 to 86 °C.

Consider `Cc1c(C(N)=O)nnn1Cc1ccccc1Cl`, for which the melting point was in the range of 181 to 183 °C.

In turn, `COc1ccc2cc(O)c(C(=O)Nc3ccccc3)cc2c1` yielded a melting point of 230 °C.

Molecule `CCCn1c(CCOC)nc2c(N)nc3cc(OCCCS(C)(=O)=O)ccc3c21` registered a melting point of 170 to 171 °C.

`O=C(O)c1cccc(-n2c(-c3ccccc3)cc3c2-c2ccccc2CC3)c1` showed a melting point of 225 to 228 °C.

Turning to `CNC(=O)OCc1cnc2c(NC(=O)c3c(Cl)cccc3Cl)cccc2c1-n1ccnc1`, the melting point lay in the range of 240 to 242 °C.

Molecule `S=C(NCN1CCOCC1)C(c1ccccc1)c1ccccn1` (configuration not stated) returned a melting point of 128 to 130 °C.

As for `N#CCC(=O)Cc1cccc(C(F)(F)F)c1`, the melting point is 82 to 83 °C.

As to `CCOC(=O)c1[nH]c(=O)c(CC(C)C)[n+]([O-])c1O`, the melting point was 153 to 155 °C.

In the case of `CCCCCCCCCCCCCCc1onc(C(=O)NN)c1O`, the melting point turned out to be 130 °C.

As for `CCn1nc(OCCCCc2ccc(OC(C)C)cc2Oc2ncc(C(F)(F)F)cc2Cl)cc1CCC(=O)O`, the melting point is 129 to 130 °C.

Regarding `CCn1cc(CN(C(=O)C2CCCc3cc(O)ccc32)c2ccc(C(C)C)cc2)cn1` (configuration not stated), the melting point fell in the range of 146 to 147 °C.

`CS(=O)c1cccc(NC(=O)NCC(=O)N(CC(=O)N2CCCc3ccccc32)c2ccccc2)c1` (racemic) returned a melting point of 140 °C.

`CS(=O)c1cc(Cl)c(C=O)c(Cl)c1` (configuration not stated) gave a melting point of 100 to 102 °C.

As to `CCOC(=O)c1ccc(-c2ccc(C(C)O)cc2)cc1` (single isomer, unassigned; (+)), the melting point stood at 74.6 °C.

On to `O=C(O)Cc1c(C(=O)c2ccc(Cl)cc2)[nH]c2cc(F)ccc12`, for which the melting point amounted to 214 °C.

`CCOC(=O)Cc1ccc(NC(=O)C(C)C)cc1` registered a melting point of 92.5 to 93.5 °C.

Molecule `CNC(=O)C(Cc1ccc(Br)cc1)NC(=O)Nc1n[nH]c(=S)s1` (configuration not stated) showed a melting point of 238 to 241 °C.

As for `Cc1cc(C)c(=O)n(C(C(=O)NS(=O)(=O)c2ccc(C(C)C)cc2)c2ccc3c(c2)OCO3)n1` (configuration not stated), the melting point was found to be 105 °C.

For `CC1(c2ccccc2)Cc2cc(O)c(Cl)c(Cl)c2C1O` (configuration not stated), the melting point fell in the range of 163 to 165 °C.

The molecule `C1=CCc2c3c(c4ccccc4c2=C1)=c1c(c2ccccc2c2ccccc12)=C3` registered a melting point of 276 to 278 °C.

Molecule `COc1ccc2cccnc2c1O` registered a melting point of 113 to 115 °C.

On to `CC(C)(C)OC(=O)[C@@H]1CCC(=S)N1Cc1ccccc1`, for which the melting point lay within 72 to 78 °C.

In turn, `COc1ccc(CC2SC(=O)NC2=O)cc1C(=O)NCc1ccc(C(F)(F)F)cc1` (configuration not stated) displayed a melting point of 176 to 178 °C.

Molecule `NC(=S)Nc1ccc(CCNCc2cccc(Cl)c2)cc1` returned a melting point of 132 to 134 °C.

For the molecule `CC(=O)C1=CC=C(C(C)(C)OO)C1`, the melting point lay within 82 to 84 °C.

In turn, `CC=CC(=O)N1CCN(NC(=O)c2ccc(F)cc2)CC1` had a melting point of 191 to 193 °C.

As for `CCCc1ccnc2c(=O)[nH]c(-c3cc(S(=O)(=O)NC)ccc3OCC)nc12`, the melting point was 216 to 219 °C.

Molecule `CC=CCn1c(C)c(C)c2cnnc(CCc3ccccc3)c21` displayed a melting point of 98 to 106 °C.

For the molecule `COc1ccc2[nH]c3cc(N)c4c(c3c2c1)C(=O)NC4=O`, the melting point lay within 342 to 345 °C.

Consider `CN1CC=C(C2=C(C#N)C(c3cccc(C#N)c3Br)c3c[nH]nc3N2)CC1` (configuration not stated), for which the melting point turned out to be 233 °C.

Consider `Cc1c(Br)c2c(c(C)c1NC(=O)OC(C)(C)C)CCO2`, for which the melting point is 176 to 177 °C.

Molecule `Cc1ccc(C)c(OCCC(N)C(C)(C)C(=O)O)c1` (configuration not stated) registered a melting point of 86.1 to 86.9 °C.

`Clc1ccc(-n2ncnc2-c2cnccn2)cc1` had a melting point of 129 to 131 °C.

Regarding `COC(=O)c1ccccc1C=Nc1ccc(Oc2ccc(C(F)(F)F)cc2Cl)cc1O`, the melting point was 82 to 85 °C.

In turn, `COc1cc2c(c3c1OC(C)(C)C3)C(c1ccc(=O)[nH]c1)=NC(C)(C)C2` registered a melting point of 195 to 196 °C.

Take `CCCCCc1ccc(CCc2ccc(-c3ccc(Cl)c(F)c3)cc2)cc1`: the melting point was determined as 153 °C.

Take `Cc1ccc(C#N)c(C)c1COC(=O)[C@H]1[C@@H](C=C(Cl)C(F)(F)F)C1(C)C` (relative stereo): the melting point was 98 °C.

Regarding `OC1CC2(CCCC2)Oc2ccc(Br)cc21` (configuration not stated), the melting point fell in the range of 123 to 124 °C.

The molecule `O=C(Nc1ccc(-n2nc(C3CC3)cc2C2CC2)cc1)c1c(Cl)cncc1Cl` had a melting point of 159 to 164 °C.

For `CCOc1cc(C(C#N)N2C(=O)c3cccc([N+](=O)[O-])c3C2=O)ccc1OC` (configuration not stated), the melting point is 155 to 157 °C.

In the case of `CCCc1ccccc1OCC(O)COc1ccc2oc(C(=O)O)cc(=O)c2c1` (configuration not stated), the melting point is 164 to 166 °C.

On to `Cc1ccc(C(=O)Nc2nccc(-c3c(-c4cccc(C)c4)nc4cccnn34)n2)cc1`, for which the melting point was in the range of 211 to 212 °C.

For the molecule `COC(=O)CC[C@H](NC(=O)c1cc(CCC2CNc3nc(N)nc(O)c3C2)c[nH]1)C(=O)OC` (some centres not stated), the melting point lay within 151 to 153 °C.

`Cc1ccc(S(=O)(=O)c2ccc(N3CCC4(CC3)OCCO4)cc2)cc1` yielded a melting point of 164 to 165 °C.

For the molecule `CON=C(c1ccc(OC(C)(C)C(=O)O)c(C)c1)c1cccs1`, the melting point came out at 108 °C.

`COc1ccc(C2NCc3c2[nH]c2ccccc2c3=O)cc1OC` (configuration not stated) registered a melting point of 223 to 225 °C.

Take `COc1cnc(-c2cccn3nc(C4(C5CCNCC5)C=CC(N)=CC4)nc23)cn1` (configuration not stated): the melting point fell in the range of 219 to 221 °C.

The molecule `CSc1c(C2=C(c3cn(C)c4ccccc34)C(=O)NC2=O)c2ccccc2n1C` registered a melting point of 281 to 283 °C.

`C#Cc1ccc(N(c2ccc(C#C)cc2)c2ccc(C#C)cc2)cc1` yielded a melting point of 115 °C.

`CSc1ncccc1NC(=O)CCCCCSc1nc2ccccc2o1` had a melting point of 127 to 128 °C.

The molecule `CCCCCc1cccc2c1NC(=O)C2=O` gave a melting point of 119 to 121 °C.

Consider `COc1cccc(-c2c(Cl)c(CCl)nc3sc4c(c23)CCN(Cc2ccccc2)C4)c1OC`, for which the melting point lay in the range of 137 to 138 °C.

Turning to `CCCCOc1cc2cc(C(=O)OC)c(C(=O)OC)c(-c3ccnc(Cl)c3)c2cc1OC`, the melting point lay in the range of 143 to 147 °C.

Consider `CCOC(=O)CC(=O)Nc1ccc(Cl)cc1`, for which the melting point was found to be 82 °C.

In turn, `CC(=O)N[C@@H]1CCN(S(=O)(=O)c2ccc(Cl)c(CBr)c2Cl)C1` yielded a melting point of 222 °C.

As for `COc1ccc(-c2n[nH]c(-c3cccc(C(=O)O)c3)n2)cc1`, the melting point was 287 to 289 °C.

Molecule `O=C(Nc1cc(Cl)c(N2CCOCC2)c(Cl)c1)c1ccc(F)c(OCc2cccnc2)c1` yielded a melting point of 209 to 211 °C.

`Cc1c(-c2ccccc2)nn(C(C)C(=O)N(C)C)c1C` (configuration not stated) returned a melting point of 76 to 79 °C.

Turning to `N#CCC1CCSc2sccc2C1=O` (configuration not stated), the melting point lay within 68 to 70 °C.

On to `CCCCC[C@H]1CC[C@H](C(=O)N[C@@H](C(=O)OCc2ccccc2)[C@@H](C)O)CC1`, for which the melting point was 130 to 134 °C.

Regarding `CCOC(=O)CC[C@H](NC(=O)CCc1cc(Cl)ccc1C(=O)CCCNC(C)=O)C(=O)OCC`, the melting point was 109 to 111 °C.

For the molecule `C=CCc1cnc2c([N+](=O)[O-])cccc2c1Cl`, the melting point was 64 to 66 °C.

`CCOC(=O)/C=C(C)/C=C/C=C(\C)C1=Cc2cc(C)ccc2OC1`: the melting point was found to be 135 °C.

Turning to `CCOC(=O)c1ccc2cc(-c3cc4ccccc4o3)ccn2c1=O`, the melting point is 195 to 197 °C.

In turn, `CCCNC(=O)N1N=C(c2ccc([N+](=O)[O-])cc2)c2cc(Cl)ccc2CC1C` (configuration not stated) came in with a melting point of 186 to 187 °C.

Molecule `Cc1ccccc1-c1ccc(Cl)cc1C#N` came in with a melting point of 62 to 65 °C.

Regarding `COc1ccc(C(=O)NNC(=O)c2occ(-c3ccccc3)c2-c2ccccc2)cc1NS(C)(=O)=O`, the melting point was in the range of 180 to 182 °C.

`Cc1cc(C)c(Nc2nc(C)ncc2S(=O)(=O)c2ccc(-c3ncc[nH]3)cc2)c(C)c1` had a melting point of 282 to 284 °C.

In turn, `OCc1cccc(-c2ncc(Br)cn2)c1` returned a melting point of 115 to 116 °C.

In the case of `Cn1nc(C(F)(F)F)cc1-c1ccc(CN2CCN(c3ccc(OCC4CCn5cc([N+](=O)[O-])nc5O4)cc3)CC2)s1` (configuration not stated), the melting point is 180 to 181 °C.

The molecule `O=C(O)C1CCC=C(c2ccccc2)C1` (configuration not stated) showed a melting point of 77 to 80 °C.

Take `CCCCCNC(=O)n1nc(Oc2ncc(C(F)(F)F)cc2Cl)cc1C`: the melting point is 142 to 144 °C.

Consider `O=C1NC(=O)C(Cc2ccc(OCc3coc(-c4ccccc4)n3)cc2)S1` (configuration not stated), for which the melting point is 188 to 189 °C.

For orientation: melting point means the temperature, or range, at which the solid turns liquid.
